Where “and” joins values, the source holds several entries; their conditions need not be identical. Equal values may be shown once.
Biological target: T1, human TAS2R1 (Homo sapiens, UniProt Q9NYW7)
T1 construct: expressed in transfected cells; host or cells: HEK293T-Gα16gust44
T1 sequence (Q9NYW7 1-299): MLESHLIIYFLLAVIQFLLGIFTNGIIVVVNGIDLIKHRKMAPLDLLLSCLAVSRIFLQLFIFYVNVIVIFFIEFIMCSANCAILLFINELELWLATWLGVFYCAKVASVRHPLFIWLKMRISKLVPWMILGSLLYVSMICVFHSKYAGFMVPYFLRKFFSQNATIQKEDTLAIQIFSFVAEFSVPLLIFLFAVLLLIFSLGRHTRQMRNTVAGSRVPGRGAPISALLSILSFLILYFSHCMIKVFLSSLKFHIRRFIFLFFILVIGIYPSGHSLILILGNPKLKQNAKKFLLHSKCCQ
Assay: Calcium imaging assay (FLIPR), HEK293T-Gα16gust44 cells transfected with human TAS2R1
Assay type: cell-based
Method in brief: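 Bile acids from DMSO stocks are applied to dye-loaded cells one day after transient receptor transfection, and calcium-dependent fluorescence is recorded. Maximum signal is standardized to basal and normalized to buffer-only wells, with empty-vector signal subtracted.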

C[C@H](CCC(=O)NCCS(=O)(=O)O)[C@H]1CC[C@H]2[C@@H]3[C@H](O)C[C@@H]4C[C@H](O)CC[C@]4(C)[C@H]3C[C@H](O)[C@]12C [Taurocholic Acid, taurocholic acid]
Efficacy = maximal amplitude (ΔF/F) (TAS2R1, bile acids, mean): 0.09987 | Efficacy (maximal amplitude ΔF/F), individual data points (TAS2R1, bile acids, single replicates, listed as TCA): 0.08896 and 0.09306 and 0.1176 | RLU (Time 0 s (second time grid)): 0 RLU | RLU (Time 2 s): 7.952 RLU | RLU (Time 4 s): 20.145 RLU | RLU (Time 6 s): -3.167 RLU | RLU (Time 8 s): -1.092 RLU | RLU (Time 12 s): 4.801 RLU | RLU (Time 14 s): 10.0652 RLU | RLU (Time 16 s): -4.025 RLU | RLU (Time 18 s): 30.6672 RLU | RLU (Time 18.781 s): -8.288 RLU | RLU (Time 20.781 s): 38.1129 RLU | RLU (Time 22.781 s): 36.5466 RLU | RLU (Time 24.781 s): 100.781 RLU | RLU (Time 26.781 s): 94.321 RLU | RLU (Time 28.781 s): 128.096 RLU | RLU (Time 30.781 s): 168.752 RLU | RLU (Time 32.781 s): 222.063 RLU | RLU (Time 34.781 s): 248.838 RLU | RLU (Time 36.781 s): 287.098 RLU | RLU (Time 38.781 s): 303.962 RLU | RLU (Time 40.781 s): 295.88 RLU | RLU (Time 42.781 s): 354.401 RLU | RLU (Time 44.781 s): 378.941 RLU | RLU (Time 46.781 s): 349.497 RLU | RLU (Time 48.781 s): 364.135 RLU | RLU (Time 50.781 s): 379.282 RLU | RLU (Time 52.781 s): 390.659 RLU | RLU (Time 54.781 s): 392.471 RLU | RLU (Time 56.781 s): 396.221 RLU | RLU (Time 58.781 s): 410.391 RLU | RLU (Time 60.781 s): 390.107 RLU | RLU (Time 62.781 s): 396.638 RLU | RLU (Time 64.781 s): 407.599 RLU | RLU (Time 66.781 s): 435.147 RLU | RLU (Time 68.781 s): 406.802 RLU | RLU (Time 70.781 s): 400.242 RLU | RLU (Time 72.781 s): 418.773 RLU | RLU (Time 74.781 s): 413.176 RLU | RLU (Time 76.781 s): 422.764 RLU | RLU (Time 78.781 s): 402.418 RLU | RLU (Time 80.781 s): 440.793 RLU | RLU (Time 82.781 s): 428.932 RLU | RLU (Time 84.781 s): 402.626 RLU | RLU (Time 86.781 s): 438.62 RLU | RLU (Time 88.781 s): 435.97 RLU | RLU (Time 90.781 s): 417.798 RLU | RLU (Time 92.781 s): 396.047 RLU | RLU (Time 94.781 s): 416.808 RLU | RLU (Time 96.781 s): 401 RLU | RLU (Time 98.781 s): 382.662 RLU | RLU (Time 100.781 s): 386.609 RLU | RLU (Time 102.781 s): 391.574 RLU | RLU (Time 104.781 s): 343.693 RLU | RLU (Time 106.781 s): 334.229 RLU | RLU (Time 108.781 s): 318.822 RLU | RLU (Time 110.781 s): 359.901 RLU | RLU (Time 112.781 s): 338.629 RLU | RLU (Time 114.781 s): 327.9 RLU | RLU (Time 116.781 s): 308.179 RLU | RLU (Time 118.781 s): 311.101 RLU | RLU (Time 120.781 s): 314.431 RLU | RLU (Time 122.781 s): 288.825 RLU | RLU (Time 124.781 s): 292.111 RLU | RLU (Time 126.781 s): 280.428 RLU | RLU (Time 128.781 s): 264.252 RLU | RLU (Time 130.781 s): 247.5 RLU | RLU (Time 132.781 s): 279.196 RLU | RLU (Time 134.781 s): 263.266 RLU | RLU (Time 136.781 s): 260.122 RLU | RLU (Time 137.547 s): 257.068 RLU | RLU (Time 143.547 s): 228.429 RLU | RLU (Time 149.547 s): 221.043 RLU | RLU (Time 155.547 s): 204.711 RLU | RLU (Time 161.547 s): 175.173 RLU | RLU (Time 167.547 s): 178.916 RLU | RLU (Time 173.547 s): 141.583 RLU | RLU (Time 179.547 s): 150.852 RLU | RLU (Time 185.547 s): 123.705 RLU | RLU (Time 191.547 s): 70.5412 RLU | RLU (Time 197.547 s): 46.3148 RLU | RLU (Time 203.547 s): 75.6277 RLU | RLU (Time 209.547 s): 55.0459 RLU | RLU (Time 215.547 s): 35.7219 RLU | RLU (Time 221.547 s): 50.9362 RLU | RLU (Time 227.547 s): 33.794 RLU | RLU (Time 233.547 s): 65.6166 RLU | RLU (Time 239.547 s): 27.332 RLU | RLU (Time 245.547 s): 17.8718 RLU | RLU (Time 293.547 s): -10.6071 RLU | RLU (Time 299.547 s): -16.6248 RLU | RLU (calcium trace, sheet TAS2R1, Time 305.547 s): -3.144 RLU | RLU (calcium trace, sheet TAS2R1, Time 311.547 s): 2.9951 RLU | RLU (calcium trace, sheet TAS2R1, Time 317.547 s): -15.9144 RLU | RLU (calcium trace, sheet TAS2R1, Time 323.547 s): -10.1142 RLU | RLU (calcium trace, sheet TAS2R1, Time 329.547 s): 11.6208 RLU | RLU (calcium trace, sheet TAS2R1, Time 335.547 s): 11.3706 RLU | RLU (calcium trace, sheet TAS2R1, Time 341.547 s): 7.052 RLU | RLU (calcium trace, sheet TAS2R1, Time 347.547 s): 31.851 RLU | RLU (calcium trace, sheet TAS2R1, Time 353.547 s): 3.282 RLU | RLU (calcium trace, sheet TAS2R1, Time 359.547 s): 34.6741 RLU | Δ F/F (conc. 0,01 mM, TAS2R1): 0.007126 | Δ F/F (conc. 0,1 mM, TAS2R1): 0.04642 | Δ F/F (conc. 0,03 mM, TAS2R1): 0.01897 | Δ F/F (conc. 0,3 mM, TAS2R1): 0.09987 | Δ F/F (conc. 0,001 mM, TAS2R1): 0.004203 | Δ F/F (conc. 0,003 mM, TAS2R1): 0.00592 | Activation threshold concentration TAS2R1 (lowest concentration with significantly increased fluorescence vs empty vector (p < 0.01)): 100 µM and 100.00 µM
